Data set [1] deals with T1, MMP-2 (Homo sapiens, UniProt P08253).
T1 sequence (P08253 110-660): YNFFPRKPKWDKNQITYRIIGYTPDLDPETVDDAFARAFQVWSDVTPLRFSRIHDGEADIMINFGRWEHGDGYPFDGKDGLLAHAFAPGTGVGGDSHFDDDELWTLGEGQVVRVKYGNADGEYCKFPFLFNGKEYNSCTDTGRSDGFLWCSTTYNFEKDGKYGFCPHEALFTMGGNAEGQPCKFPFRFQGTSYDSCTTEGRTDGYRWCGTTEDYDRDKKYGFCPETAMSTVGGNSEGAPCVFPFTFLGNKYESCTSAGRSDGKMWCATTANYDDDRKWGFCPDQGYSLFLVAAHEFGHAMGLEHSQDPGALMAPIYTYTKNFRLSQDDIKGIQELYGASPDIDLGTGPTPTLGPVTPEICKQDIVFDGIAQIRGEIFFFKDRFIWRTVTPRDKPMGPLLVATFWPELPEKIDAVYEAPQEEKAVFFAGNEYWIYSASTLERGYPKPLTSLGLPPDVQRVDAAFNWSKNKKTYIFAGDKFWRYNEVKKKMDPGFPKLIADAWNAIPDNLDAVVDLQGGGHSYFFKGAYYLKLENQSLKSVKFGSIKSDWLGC
The settings on record: read-out: MMP-2 IC50; fluorogenic substrate 1 μM, MMP 1 nM, inhibitor 1000 pM-100 μM.
Experimental: Thus, a constant concentration of the fluorogenic substrate (1 μM) and the respective MMPs (1 nM) were incubated with increasing amounts of the MMP-inhibitors (1000 pM-100 μM) to determine their IC50 values.

Data set [2] deals with T2, MMP-9 (Homo sapiens, UniProt P14780). Put plainly: In vitro metalloproteinase inhibition assay, fluorogenic substrate (method of Huang et al.). Type of data set: biochemical. To be noted: fluorogenic substrate 1 μM, MMP 1 nM, inhibitor 1000 pM-100 μM. From the text:
In Vitro Metalloproteinase Inhibition Assay
Target sequence in this assay (P14780 94-707): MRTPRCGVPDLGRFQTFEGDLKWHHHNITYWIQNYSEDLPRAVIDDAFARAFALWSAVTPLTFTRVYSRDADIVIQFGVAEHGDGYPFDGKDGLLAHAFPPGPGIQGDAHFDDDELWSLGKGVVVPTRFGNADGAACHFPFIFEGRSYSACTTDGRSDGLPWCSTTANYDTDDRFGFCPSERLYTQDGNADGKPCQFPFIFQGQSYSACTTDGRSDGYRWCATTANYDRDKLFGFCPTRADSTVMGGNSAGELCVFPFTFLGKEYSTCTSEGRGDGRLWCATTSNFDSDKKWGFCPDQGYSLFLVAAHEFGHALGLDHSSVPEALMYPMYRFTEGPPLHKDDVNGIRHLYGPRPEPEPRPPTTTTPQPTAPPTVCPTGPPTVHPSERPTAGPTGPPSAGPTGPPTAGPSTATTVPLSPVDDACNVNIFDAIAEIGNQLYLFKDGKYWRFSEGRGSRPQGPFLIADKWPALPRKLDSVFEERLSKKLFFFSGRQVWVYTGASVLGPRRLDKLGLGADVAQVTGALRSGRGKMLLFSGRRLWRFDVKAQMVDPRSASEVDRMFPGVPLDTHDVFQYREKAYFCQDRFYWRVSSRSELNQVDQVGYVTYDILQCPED

The next data set addresses MMP-12 (Homo sapiens, UniProt P39900). Put plainly: Biomol MMP-12 colourimetric assay kit AK-402 (thiopeptolide substrate). Type of data set: biochemical. How it is done: (§1) Additional In Vitro Metalloproteinase Inhibition Assay
(§2) Compounds were screened using the following commercially available Biomol assay kits:
MMP-12 colourimetric assay kit—Catalogue number AK-402,
(§3) Which are available from Affiniti Research Products Ltd. (Palatine House, Matford Court, Exeter, EX2 8NL, UK).
(§4) (a) Test Compound Preparation.
(§5) Inhibitors were provided in powdered form, and stored at 4° C. For each inhibitor a 1 mM stock solution in DMSO was prepared, dispensed into 20 μl aliquots and these aliquots stored at −20° C. The stock solution was diluted to give 8 inhibitor concentrations (recommended: […], 5 μM, 500 nM, 50 nM, 5 nM, 500 pM, 50 pM and 5 pM). Dilutions were made in the kit assay buffer. A five-fold dilution of the inhibitor stocks is made on addition to the assay wells, therefore final concentration range is from 10 μM to 1 pM.
(§6) (b) Experimental Procedure.
(§7) Details are provided with the commercial kit, but can be summarised as follows:
(§8) Prepare test compound dilutions as above,
(§9) Add assay buffer to plate,
(§10) Add test compounds to plate
(§11) Prepare standard kit inhibitor NNGH (see kit for dilution factor)
(§12) Add NNGH to control inhibitor wells
(§13) Prepare MMP enzyme (see kit for dilution factor)
(§14) Incubate plate at 37° C. for ˜15 min
(§15) Prepare thiopeptolide substrate (see kit for dilution factor)
(§16) Count every 2 min for 1 hr, 37° C., 414 nm on a Labsystems iEMS plate reader.

Data set [3] has as its target T2, MMP-9. Put plainly: Biomol MMP-9 colourimetric assay kit AK-410 (thiopeptolide substrate). Type of data set: biochemical. How it is done:
as §1, §2
Target sequence in this assay (P14780 107-444 limits assumed): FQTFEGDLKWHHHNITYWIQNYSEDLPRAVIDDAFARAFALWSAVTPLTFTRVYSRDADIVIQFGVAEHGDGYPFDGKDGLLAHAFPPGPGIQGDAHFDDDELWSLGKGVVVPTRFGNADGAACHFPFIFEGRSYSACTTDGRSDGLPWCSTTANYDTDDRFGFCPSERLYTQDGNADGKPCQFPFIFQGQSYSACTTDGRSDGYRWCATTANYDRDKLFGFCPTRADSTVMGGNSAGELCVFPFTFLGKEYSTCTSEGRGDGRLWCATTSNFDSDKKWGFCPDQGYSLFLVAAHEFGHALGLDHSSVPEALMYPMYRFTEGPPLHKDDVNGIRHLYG
MMP-9 colourimetric assay kit—Catalogue number AK-410,
as §3, §4, §5, §6, §7, §8, §9, §10, §11, §12, §13, §14, §15, §16

Data set [4] concerns the target MMP-2 (Homo sapiens, UniProt P08253). Put plainly: Biomol MMP-2 colourimetric assay kit AK-408 (thiopeptolide substrate). Type of data set: biochemical. How it is done:
as §1, §2
MMP-2 colourimetric assay kit—Catalogue number AK-408,
as §3, §4, §5, §6, §7, §8, §9, §10, §11, §12, §13, §14, §15, §16

Where two headings read alike, the source gives them in different places.

By IC50 is commonly meant the midpoint of a concentration-inhibition curve. A word on the Ki: it is the equilibrium dissociation constant of an inhibitor or competing ligand from its target. The term melting point denotes the temperature, or range, at which the solid turns liquid.

MMP-12, sequence (P39900 106-268 limits assumed): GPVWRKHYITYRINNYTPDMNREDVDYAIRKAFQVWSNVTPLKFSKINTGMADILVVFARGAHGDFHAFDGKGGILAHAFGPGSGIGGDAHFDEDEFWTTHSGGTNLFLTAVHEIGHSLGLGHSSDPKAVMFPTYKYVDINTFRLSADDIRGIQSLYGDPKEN

As to `O=C1NC(=O)C(c2ccc(Oc3ccc(I)cc3)cc2)(N2CCN(CCO)CC2)C(=O)N1` [Compound 4, 5-[4-(2-Hydroxyethyl)piperazin-1-yl]-5-[4-(4-iodo-phenoxy)phenyl]-pyrimidine-2,4,6-trione], the IC50 was 7 nM on MMP-2 [1] and 2 nM against MMP-9 [2].

For `CC(=NO)C(C)(C)NCCC(CCNC(=O)CCCC(=O)NCCN1CCN(C2(c3ccc(Oc4ccc(Br)cc4)cc3)C(=O)NC(=O)NC2=O)CC1)CCNC(C)(C)C(C)=NO` (stereo not drawn) [Compound 17], the Ki came to 157 nM on MMP-12 (colourimetric kit, thiopeptolide substrate, 37° C., 414 nm, read-out: MMP-12 (Ki)); 10 nM on MMP-9 [3]; 29 nM at MMP-2 [4].

The compound `C[Si](C)(C)c1ccc(N2CCN(C3(c4ccc(Oc5ccc(Br)cc5)cc4)C(=O)NC(=O)NC3=O)CC2)cc1` yielded a melting point of 205 to 210 °C.

`O=C1NC(=O)C(c2ccc(Oc3ccc(Br)cc3)cc2)(N2CCN(CCCF)CC2)C(=O)N1` [Compound 7, 5-[4-(4-Bromophenoxy)phenyl]-5-[4-(3-fluoropropyl)-piperazin-1-yl)-pyrimidine-2,4,6-trione]: the figures for the inhibition constant Ki at MMP-9 [3] and on MMP-2 [4] were 2 nM and 11 nM, respectively.

In the case of `O=C1NC(=O)C(c2ccc(Oc3ccc(Br)cc3)cc2)(N2CCN(CCO)CC2)C(=O)N1` [Compound 2, 5-[4-(4-bromo-phenoxy)phenyl]-5-[4-(2-hydroxyethyl)piperazin-1-yl]-pyrimidine-2,4,6-trione, reference compound], the figures for the IC50 at MMP-2 [1] and on MMP-9 [2] were 9 nM and 4 nM, respectively.

Take `O=C1NC(=O)C(c2ccc(Oc3ccc(Br)cc3)cc2)(N2CCN(C(=O)CSCCCF)CC2)C(=O)N1` [Compound 9]: the Ki stood at 11 nM at MMP-12, 0.3 nM at MMP-9 [3] and 5 nM on MMP-2 [4].

Consider `O=C1NC(=O)C(Nc2ccc(I)cc2)(c2ccc(Oc3ccc(Br)cc3)cc2)C(=O)N1` [Compound 24, 5-[4-(4-Bromophenoxy)-phenyl]-5-(4-iodophenylamino)-pyrimidine-2,4,6-trione], for which the Ki at MMP-9 [3] was found to be 20 nM; at MMP-2 [4], 45 nM.

Consider `COc1ccc(Oc2ccc(C3(N4CCN(CCO)CC4)C(=O)NC(=O)NC3=O)cc2)cc1` [Compound 3, 5-[4-(2-hydroxyethyl)piperazin-1-yl]-5-[4 (4-methoxy-phenoxy)phenyl]-pyrimidine-2,4,6-trione, reference compound], for which the values for the IC50 on MMP-2 [1] and at MMP-9 [2] were 9 nM and 6 nM, respectively.

As for `O=C1NC(=O)C(c2ccc(Oc3ccc(Br)cc3)cc2)(N2CCN(c3ccc(F)cc3)CC2)C(=O)N1` [Compound 20, 5-[4-(4-Bromo-phenoxy)phenyl]-5-[4-(4-fluorophenyl)piperazin-1-yl]-pyrimidine-2,4,6-trione], the half-inhibitory concentration (IC50) at MMP-2 [1] came out at 12 nM; at MMP-9 [2], 19 nM.

For `CC(=NO)C(C)(C)NCCC(CCNC(=O)CCN1CCN(C2(c3ccc(Oc4ccc(Br)cc4)cc3)C(=O)NC(=O)NC2=O)CC1)CCNC(C)(C)C(C)=NO` (stereo not drawn) [Compound 16, 3-(4-{5-[4-(4-Bromophenoxy)-phenyl]-2,4,6-trioxohexahydropyrmidin-5-yl}-piperazin-1-yl)N-{5-(2-hydroxylimino-1,1-dimethylpropylamino)-3-[2-(2-hydroxylamino-1,1-dimethylpropylamino)-ethyl]-pentyl}-propionamide], the Ki on MMP-9 [3] was found to be 3 nM; on MMP-2 [4] it was 14 nM.

The values above are taken from patent US20060120956A1, “Imaging agents comprising barbituric acid derivatives” (priority 2002, published 2006).
